Experimental data taken from PubChem BioAssay (NCI).
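Results reflect a 48-hour exposure of cells in 96-well plates to compound at five concentrations. TGI is the concentration that stops growth completely.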

Experiments:
Test in all cases: NCI-60 cell line screen, 48 h
MDA-MB-435 = tested on: MDA-MB-435
CAKI-1 renal = tested on: CAKI-1 renal
HOP-62 NSCLC = tested on: HOP-62 NSCLC
HS 578T breast = tested on: HS 578T breast
OVCAR-3 ovarian = tested on: OVCAR-3 ovarian
BT-549 breast = tested on: BT-549 breast
K-562 leukemia = tested on: K-562 leukemia
SN12C renal = tested on: SN12C renal
OVCAR-5 ovarian = tested on: OVCAR-5 ovarian
T-47D breast = tested on: T-47D breast
UACC-62 melanoma = tested on: UACC-62 melanoma
NCI-H23 lung = tested on: NCI-H23 lung
NCI/ADR-RES ovarian = tested on: NCI/ADR-RES ovarian
U251 CNS = tested on: U251 CNS
A498 renal = tested on: A498 renal
SK-MEL-2 melanoma = tested on: SK-MEL-2 melanoma
DU-145 prostate = tested on: DU-145 prostate
NCI-H226 lung = tested on: NCI-H226 lung
HCT-116 colon = tested on: HCT-116 colon
OVCAR-4 ovarian = tested on: OVCAR-4 ovarian
SK-OV-3 ovarian = tested on: SK-OV-3 ovarian
MALME-3M melanoma = tested on: MALME-3M melanoma
ACHN renal = tested on: ACHN renal
HCT-15 colon = tested on: HCT-15 colon
UACC-257 melanoma = tested on: UACC-257 melanoma
SR leukemia = tested on: SR leukemia
SW-620 colon = tested on: SW-620 colon
RPMI-8226 leukemia = tested on: RPMI-8226 leukemia
SNB-19 CNS = tested on: SNB-19 CNS
M14 melanoma = tested on: M14 melanoma
NCI-H522 lung = tested on: NCI-H522 lung
SK-MEL-28 melanoma = tested on: SK-MEL-28 melanoma
COLO 205 colon = tested on: COLO 205 colon
A549 NSCLC = tested on: A549 NSCLC
TK-10 renal = tested on: TK-10 renal
MOLT-4 leukemia = tested on: MOLT-4 leukemia
MCF7 breast = tested on: MCF7 breast
SF-268 CNS = tested on: SF-268 CNS
UO-31 renal = tested on: UO-31 renal
IGROV1 ovarian = tested on: IGROV1 ovarian
EKVX NSCLC = tested on: EKVX NSCLC
HCC-2998 colon = tested on: HCC-2998 colon
MDA-MB-231 breast = tested on: MDA-MB-231 breast
RXF 393 renal = tested on: RXF 393 renal
786-0 renal = tested on: 786-0 renal
LOX IMVI melanoma = tested on: LOX IMVI melanoma
KM12 colon = tested on: KM12 colon
PC-3 prostate = tested on: PC-3 prostate
OVCAR-8 ovarian = tested on: OVCAR-8 ovarian
HL-60(TB) leukemia = tested on: HL-60(TB) leukemia
HT29 colon = tested on: HT29 colon
SF-295 CNS = tested on: SF-295 CNS
SK-MEL-5 melanoma = tested on: SK-MEL-5 melanoma
MDA-N = tested on: MDA-N
HOP-92 NSCLC = tested on: HOP-92 NSCLC
SF-539 CNS = tested on: SF-539 CNS
NCI-H460 lung = tested on: NCI-H460 lung
CCRF-CEM leukemia = tested on: CCRF-CEM leukemia

`CCOC(=O)c1cc(C(O)P2(=O)N(CC(C)(C)C)[C@@H]3CCCC[C@H]3N2CC(C)(C)C)cn1C(=O)OC(C)(C)C` (stereo not given in full) gave a TGI (MDA-MB-435) of 27 µM, a TGI (CAKI-1 renal) of 51 µM and a TGI (HOP-62 NSCLC) of 28.1 µM. It also gave a TGI (HS 578T breast) of 36.1 µM, a TGI (OVCAR-3 ovarian) of 25 µM and a TGI (BT-549 breast) of 31.9 µM. The TGI (K-562 leukemia) was 47 µM, the TGI (SN12C renal) was 27.5 µM and the TGI (OVCAR-5 ovarian) was 41.6 µM. It also gave a TGI (T-47D breast) of over 100 µM, a TGI (UACC-62 melanoma) of 28.6 µM and a TGI (NCI-H23 lung) of 68.3 µM. For the same molecule, the TGI (NCI/ADR-RES ovarian) was 44.6 µM, the TGI (U251 CNS) was 29.4 µM and the TGI (A498 renal) was 65.3 µM. It also gave a TGI (SK-MEL-2 melanoma) of 32.8 µM, a TGI (DU-145 prostate) of 36.2 µM and a TGI (NCI-H226 lung) of 39.4 µM. The TGI (HCT-116 colon) was 23.2 µM, the TGI (OVCAR-4 ovarian) was 77.7 µM and the TGI (SK-OV-3 ovarian) was 59.2 µM. It also gave a TGI (MALME-3M melanoma) of 33.6 µM, a TGI (ACHN renal) of over 100 µM and a TGI (HCT-15 colon) of 36 µM. For the same molecule, the TGI (UACC-257 melanoma) was 28.7 µM, the TGI (SR leukemia) was 25.6 µM and the TGI (SW-620 colon) was 32.6 µM. It also gave a TGI (RPMI-8226 leukemia) of 29.8 µM, a TGI (SNB-19 CNS) of 46.2 µM and a TGI (M14 melanoma) of 29.7 µM. It also gave a TGI (NCI-H522 lung) of 31.1 µM, a TGI (SK-MEL-28 melanoma) of 30.3 µM and a TGI (COLO 205 colon) of 31.4 µM. It also gave a TGI (A549 NSCLC) of 38.8 µM, a TGI (TK-10 renal) of 57.3 µM and a TGI (MOLT-4 leukemia) of 34 µM. For the same molecule, the TGI (MCF7 breast) was 51 µM, the TGI (SF-268 CNS) was 38.4 µM and the TGI (UO-31 renal) was 28.7 µM. It also gave a TGI (IGROV1 ovarian) of 18.1 µM, a TGI (EKVX NSCLC) of 55.6 µM and a TGI (HCC-2998 colon) of 29.7 µM. For the same molecule, the TGI (MDA-MB-231 breast) was 31.4 µM, the TGI (RXF 393 renal) was 26.6 µM and the TGI (786-0 renal) was 31 µM. The TGI (LOX IMVI melanoma) was 31.4 µM, the TGI (KM12 colon) was 29.2 µM and the TGI (PC-3 prostate) was 48.5 µM. For the same molecule, the TGI (OVCAR-8 ovarian) was 47.1 µM, the TGI (HL-60(TB) leukemia) was 48.6 µM and the TGI (HT29 colon) was 26.7 µM. For the same molecule, the TGI (SF-295 CNS) was 32 µM, the TGI (SK-MEL-5 melanoma) was 31.3 µM and the TGI (MDA-N) was 28 µM.
`O=C(O)Cc1cccc2c(=O)c3ccccc3oc12` gave a TGI (MDA-MB-435) of over 100 µM, a TGI (CAKI-1 renal) of over 100 µM and a TGI (HOP-62 NSCLC) of over 100 µM. The TGI (HS 578T breast) was over 100 µM, the TGI (OVCAR-3 ovarian) was over 100 µM and the TGI (BT-549 breast) was over 100 µM. For the same molecule, the TGI (K-562 leukemia) was over 100 µM, the TGI (SN12C renal) was over 100 µM and the TGI (T-47D breast) was 61.7 µM. It also gave a TGI (UACC-62 melanoma) of 77.2 µM, a TGI (NCI-H23 lung) of over 100 µM and a TGI (NCI/ADR-RES ovarian) of over 100 µM. It also gave a TGI (U251 CNS) of over 100 µM, a TGI (A498 renal) of over 100 µM and a TGI (SK-MEL-2 melanoma) of 56.5 µM. The TGI (DU-145 prostate) was over 100 µM, the TGI (NCI-H226 lung) was over 100 µM and the TGI (HCT-116 colon) was over 100 µM. For the same molecule, the TGI (OVCAR-4 ovarian) was over 100 µM, the TGI (SK-OV-3 ovarian) was 41.9 µM and the TGI (MALME-3M melanoma) was over 100 µM. It also gave a TGI (ACHN renal) of over 100 µM, a TGI (HCT-15 colon) of over 100 µM and a TGI (UACC-257 melanoma) of over 100 µM. The TGI (SR leukemia) was over 100 µM, the TGI (SW-620 colon) was over 100 µM and the TGI (RPMI-8226 leukemia) was over 100 µM. It also gave a TGI (HOP-92 NSCLC) of over 100 µM, a TGI (SNB-19 CNS) of over 100 µM and a TGI (SF-539 CNS) of over 100 µM. The TGI (M14 melanoma) was over 100 µM, the TGI (NCI-H522 lung) was over 100 µM and the TGI (SK-MEL-28 melanoma) was over 100 µM. For the same molecule, the TGI (COLO 205 colon) was over 100 µM, the TGI (A549 NSCLC) was over 100 µM and the TGI (TK-10 renal) was over 100 µM. The TGI (MOLT-4 leukemia) was over 100 µM, the TGI (MCF7 breast) was over 100 µM and the TGI (SF-268 CNS) was over 100 µM. It also gave a TGI (UO-31 renal) of over 100 µM, a TGI (IGROV1 ovarian) of over 100 µM and a TGI (EKVX NSCLC) of over 100 µM. It also gave a TGI (HCC-2998 colon) of 46 µM, a TGI (MDA-MB-231 breast) of over 100 µM and a TGI (786-0 renal) of over 100 µM. For the same molecule, the TGI (LOX IMVI melanoma) was over 100 µM, the TGI (NCI-H460 lung) was over 100 µM and the TGI (KM12 colon) was over 100 µM. It also gave a TGI (PC-3 prostate) of over 100 µM, a TGI (OVCAR-8 ovarian) of over 100 µM and a TGI (HL-60(TB) leukemia) of over 100 µM. The TGI (HT29 colon) was over 100 µM, the TGI (SF-295 CNS) was over 100 µM and the TGI (SK-MEL-5 melanoma) was over 100 µM. The TGI (CCRF-CEM leukemia) was over 100 µM and the TGI (MDA-N) was over 100 µM.
